Legend:
CB1R [1] = biological target: T1, CB1R (Rattus norvegicus, UniProt P20272); test: Ligand stimulated [35S]GTPγS binding assay in rat brain membranes; format: biochemical; conditions: for EC50 / CB1R functional profile (agonist / antagonist / inverse agonist): rat brain membranes; for EC50: ± SEM, read-out: [35S]GTPγS stimulation EC50; for Emax: read-out: [35S]GTPγS stimulation Emax; for CB1R functional profile (agonist / antagonist / inverse agonist): from [35S]GTPγS binding
T1 construct: Crude membrane fractions were prepared from the brain; from tissue; host or cells: Wistar rat whole brain, crude membrane fraction
T1 sequence (P20272 whole entry): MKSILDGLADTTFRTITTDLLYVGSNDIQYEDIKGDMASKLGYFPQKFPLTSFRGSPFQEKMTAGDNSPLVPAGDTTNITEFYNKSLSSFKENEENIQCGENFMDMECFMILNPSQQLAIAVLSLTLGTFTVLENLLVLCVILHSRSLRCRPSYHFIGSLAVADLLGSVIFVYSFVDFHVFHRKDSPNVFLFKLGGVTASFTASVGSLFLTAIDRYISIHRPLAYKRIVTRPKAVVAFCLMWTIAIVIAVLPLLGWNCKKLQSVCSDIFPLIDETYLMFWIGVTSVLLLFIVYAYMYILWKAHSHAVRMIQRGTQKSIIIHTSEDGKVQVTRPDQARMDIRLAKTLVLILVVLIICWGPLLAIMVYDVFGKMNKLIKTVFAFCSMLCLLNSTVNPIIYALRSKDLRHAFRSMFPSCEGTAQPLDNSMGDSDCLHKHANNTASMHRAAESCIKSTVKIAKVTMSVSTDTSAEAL
Experimental: (§1) Our novel chemical compounds were tested in vitro for their binding ability, efficacy, and potency on CB1R in rat brain membrane homogenate (Table 2 and SI, Figure S1). CB1Rs are the most abundant G-protein coupled receptors in the rodent and mammalian brain; therefore, this is an appropriate model to characterize our ligands in a more physiological system.
(§2) In Vitro Biological Assays
(§3) Preparation of Brain Membrane Homogenates
Wistar rats were locally bred and handled according to the EU Directive 2010/63/EU and to the Regulations on Animal Protection (40/2013. (II. 14.) Korm. r.) of Hungary. Crude membrane fractions were prepared from the brain. Brains were quickly removed from the euthanized rats and directly put in an ice-cold 50 mM Tris-HCl buffer (pH 7.4). The collected tissue was then homogenized in 30 volumes (v/w) of an ice-cold buffer with a Braun Teflon-glass homogenizer at the highest rpm. The homogenate was centrifuged at 20,000 × g for 25 min, and the resulting pellet was suspended in the same volume of a cold buffer followed by incubation at 37 °C for 30 min to remove endogenous ligands. Centrifugation was then repeated. The final pellets were taken up in five volumes of a 50 mM Tris-HCl (pH 7.4) buffer containing 0.32 M sucrose and stored at -80 °C. Prior to the experiment, aliquots were thawed and centrifuged at 20,000 ×g for 25 min and then they were resuspended in 50 mM Tris-HCl (pH 7.4), homogenized with a Douncer, followed by the determination of the protein concentration by the method of Bradford. The membrane suspensions were immediately used either in radioligand binding experiments or in [35S]GTPγS functional assays. […]
(§4) was terminated by diluting the samples with an ice-cold wash buffer (50 mM of Tris-HCl, 2.5 mM of EGTA, 5 mM of MgCl2, 0.5% fatty acid free BSA, pH 7.4), followed by repeated washing and rapid filtration through Whatman GF/B glass fiber filters (Whatman Ltd., Maidstone, UK) pre-soaked with 0.1% polyethyleneimine (30 min before the filtration). Filtration was performed with a 24-well Brandel Cell Harvester (Gaithersburg, MD, USA). Filters were air-dried and immersed into Ultima Gold MV scintillation cocktail, and then radioactivity was measured with a TRI-CARB 2100TR liquid scintillation analyzer (Packard, Perkin Elmer, Waltham, MA, USA).
Ligand Stimulated [35S]GTPγS Binding Assay
Rat brain membranes (30 µg protein/tube), prepared as described above, were incubated with 0.05 nM of […]
mM of NaCl, 3 mM of MgCl2 and 1 mM of EGTA in a 50 mM Tris-HCl buffer (pH 7.4) for 60 min at 30 °C. Basal [35S]GTPγS binding was measured in the absence of ligands and set as 100%. Nonspecific […]
binding was determined by the addition of 10 µM unlabelled GTPγS and subtracted from total binding.
Incubation, filtration and radioactivity measurements of the samples were carried out as described above. […]
All […]
data and curves were analyzed by GraphPad Prism 5.0 (San Diego, CA, USA).

CB1R [2] = biological target: T1, CB1R; test: [3H]WIN55,212-2 radioligand competition binding assay in rat brain membrane homogenate; conditions: for Ki [3H]WIN55,212-2 binding: 5 nM [3H]WIN55,212-2, ± SEM, n.b. = no binding of ligands was observed; for Ki: read-out: Ki [3H]WIN55,212-2 binding, 5 nM [3H]WIN55,212-2, ± SEM, n.b. = no binding of ligands was observed
Experimental: as §1, §2, §3
Wistar rats were locally bred and handled according to the EU Directive 2010/63/EU and to the Regulations on Animal Protection (40/2013. (II. 14.) Korm. r.) of Hungary. Crude membrane fractions were prepared from the brain. Brains were quickly removed from the euthanized rats and directly put in an ice-cold 50 mM Tris-HCl buffer (pH 7.4). The collected tissue was then homogenized in 30 volumes (v/w) of an ice-cold buffer with a Braun Teflon-glass homogenizer at the highest rpm. The homogenate was centrifuged at 20,000 × g for 25 min, and the resulting pellet was suspended in the same volume of a cold buffer followed by incubation at 37 °C for 30 min to remove endogenous ligands. Centrifugation was then repeated. The final pellets were taken up in five volumes of a 50 mM Tris-HCl (pH 7.4) buffer containing 0.32 M sucrose and stored at -80 °C. Prior to the experiment, aliquots were thawed and centrifuged at 20,000 ×g for 25 min and then they were resuspended in 50 mM Tris-HCl (pH 7.4), homogenized with a Douncer, followed by the determination of the protein concentration by the method of Bradford. The membrane suspensions were immediately used either in radioligand binding experiments or in [35S]GTPγS functional assays.
Radioligand Competition Binding Assay
Binding experiments were performed at 30 °C for 60 min in a 50 mM Tris-HCl binding buffer (pH 7.4) containing 2.5 mM of EGTA, 5 mM of MgCl2 and 0.5 mg/mL of fatty acid-free BSA in plastic tubes in a total assay volume of 1 mL that contained 0.3-0.5 mg/mL of a membrane protein. Competition binding […]
ligands. […] The incubation […]
as §4, with “MA, USA). […]” for “MA, USA).”
The results of the competition binding studies are reported as means ± S.E.M. of at least three independent experiments each performed in duplicate. In competition binding studies, the inhibitory constants (Ki) were calculated from the inflection points of the displacement curves using non-linear least-square curve fitting and the Cheng-Prusoff equation, Ki= […]/(1 + [ligand]/Kd). […]

CC(C)[C@H](NC(=O)c1cc(-n2cccc2)n(-c2ccc(Cl)cc2)n1)C(=O)O [Compound 1, RS2689-Val-OH]
EC50 (CB1R [1]): 5870 ± 372 nM
Ki [3H]WIN55,212-2 binding (CB1R [2]): n.b.

CC(C)(C)[C@H](NC(=O)c1cc(-n2cccc2)n(-c2ccc(Cl)cc2)n1)C(=O)O [Compound 2, RS2689-tLeu-OH]
EC50 (CB1R [1]): 712 ± 18 nM
Ki [3H]WIN55,212-2 binding (CB1R [2]): n.b.

Cc1c(C(=O)N[C@H](C(=O)O)C(C)C)nn(-c2ccc(Cl)cc2)c1-n1cccc1 [Compound 3, RS2691-Val-OH]
EC50 (CB1R [1]): > 10000 nM
Ki [3H]WIN55,212-2 binding (CB1R [2]): n.b.

Cc1c(C(=O)N[C@H](C(=O)O)C(C)(C)C)nn(-c2ccc(Cl)cc2)c1-n1cccc1 [Compound 4, RS2691-tLeu-OH]
EC50 (CB1R [1]): 4610 ± 303 nM
Ki (CB1R [2]): 5880 ± 152 nM

CC(C)[C@H](NC(=O)c1cc(-n2cccc2)n(-c2ccccc2)n1)C(=O)O [Compound 5, RS2708-Val-OH]
EC50 (CB1R [1]): 1650 ± 75 nM
Ki [3H]WIN55,212-2 binding (CB1R [2]): n.b.

CC(C)(C)[C@H](NC(=O)c1cc(-n2cccc2)n(-c2ccccc2)n1)C(=O)O [Compound 6, RS2708-tLeu-OH]
EC50 (CB1R [1]): 2450 ± 118 nM
Ki [3H]WIN55,212-2 binding (CB1R [2]): n.b.

Cc1c(C(=O)N[C@H](C(=O)O)C(C)C)nn(-c2ccccc2)c1-n1cccc1 [Compound 7, RS2709-Val-OH]
EC50 (CB1R [1]): 2550 ± 106 nM
Ki [3H]WIN55,212-2 binding (CB1R [2]): n.b.

Cc1c(C(=O)N[C@H](C(=O)O)C(C)(C)C)nn(-c2ccccc2)c1-n1cccc1 [Compound 8, RS2709-tLeu-OH]
EC50 (CB1R [1]): 3400 ± 118 nM
Ki [3H]WIN55,212-2 binding (CB1R [2]): n.b.

Cc1c(C(=O)N[C@H](C(=O)O)C(C)C)nn(-c2ccc(Cl)cc2Cl)c1-n1cccc1Cl [Compound 9, RS3516-Val-OH]
EC50 (CB1R [1]): 3430 ± 283 nM
Ki [3H]WIN55,212-2 binding (CB1R [2]): n.b.

Cc1c(C(=O)N[C@H](C(=O)O)C(C)(C)C)nn(-c2ccc(Cl)cc2Cl)c1-n1cccc1Cl [Compound 10, RS3516-tLeu-OH]
EC50 (CB1R [1]): 1650 ± 98 nM
Ki [3H]WIN55,212-2 binding (CB1R [2]): n.b.

CC(C)[C@H](NC(=O)c1cc(-n2cccc2)n(-c2ccc(Cl)cc2)n1)C(N)=O [Compound 11, RS2689-Val-NH2]
EC50 (CB1R [1]): 1160 ± 79 nM
Ki (CB1R [2]): 341 ± 19 nM

CC(C)(C)[C@H](NC(=O)c1cc(-n2cccc2)n(-c2ccc(Cl)cc2)n1)C(N)=O [Compound 12, RS2689-tLeu-NH2]
Ki (CB1R [2]): 102 ± 16 nM

Cc1c(C(=O)N[C@H](C(N)=O)C(C)C)nn(-c2ccc(Cl)cc2)c1-n1cccc1 [Compound 13, RS2691-Val-NH2]
Ki (CB1R [2]): 123 ± 13 nM

CC(C)[C@H](NC(=O)c1cc(-n2cccc2)n(-c2ccccc2)n1)C(N)=O [Compound 15, RS2708-Val-NH2]
EC50 (CB1R [1]): 1230 ± 121 nM
Ki [3H]WIN55,212-2 binding (CB1R [2]): n.b.

CC(C)(C)[C@H](NC(=O)c1cc(-n2cccc2)n(-c2ccccc2)n1)C(N)=O [Compound 16, RS2708-tLeu-NH2]
EC50 (CB1R [1]): 295 ± 38 nM
Ki (CB1R [2]): 1470 ± 103 nM

Cc1c(C(=O)N[C@H](C(N)=O)C(C)C)nn(-c2ccccc2)c1-n1cccc1 [Compound 17, RS2709-Val-NH2]
EC50 (CB1R [1]): 4240 ± 377 nM
Ki (CB1R [2]): 1060 ± 72 nM

COC(=O)[C@@H](NC(=O)c1nn(-c2ccc(Cl)cc2)c(-n2cccc2)c1C)C(C)C [Compound 23, RS2691-Val-OCH3]
EC50 (CB1R [1]): 4870 ± 225 nM
Ki (CB1R [2]): 55 ± 5.2 nM

COC(=O)[C@@H](NC(=O)c1cc(-n2cccc2)n(-c2ccccc2)n1)C(C)C [Compound 25, RS2708-Val-OCH3]
EC50 (CB1R [1]): 468 ± 22 nM
Ki (CB1R [2]): 1360 ± 16 nM

COC(=O)[C@@H](NC(=O)c1nn(-c2ccccc2)c(-n2cccc2)c1C)C(C)C [Compound 27, RS2709-Val-OCH3]
EC50 (CB1R [1]): 2080 ± 129 nM
Ki (CB1R [2]): 449 ± 15 nM

COC(=O)[C@@H](NC(=O)c1nn(-c2ccccc2)c(-n2cccc2)c1C)C(C)(C)C [Compound 28, RS2709-tLeu-OCH3]
EC50 (CB1R [1]): 1030 ± 117 nM
Emax (CB1R [1]): 55 ± 5%
Ki (CB1R [2]): 369 ± 19 nM

COC(=O)[C@@H](NC(=O)c1nn(-c2ccc(Cl)cc2Cl)c(-n2cccc2Cl)c1C)C(C)(C)C [Compound 30, RS3516-tLeu-OCH3]
EC50 (CB1R [1]): 4390 ± 344 nM
Ki (CB1R [2]): 21 ± 4.4 nM

CNC(=O)[C@@H](NC(=O)c1cc(-n2cccc2)n(-c2ccc(Cl)cc2)n1)C(C)C [Compound 31, RS2689-Val-NHCH3]
CB1R functional profile (agonist / antagonist / inverse agonist) (CB1R [1]): weak inverse agonist
EC50 (CB1R [1]): 601 ± 21 nM
Ki [3H]WIN55,212-2 binding (CB1R [2]): modest affinity
Ki (CB1R [2]): 387 ± 33 nM

CNC(=O)[C@@H](NC(=O)c1cc(-n2cccc2)n(-c2ccc(Cl)cc2)n1)C(C)(C)C [Compound 32, RS2689-tLeu-NHCH3]
CB1R functional profile (agonist / antagonist / inverse agonist) (CB1R [1]): agonist
EC50 (CB1R [1]): 389 ± 51 nM
Emax (CB1R [1]): 120 ± 2%
Ki (CB1R [2]): 42 ± 2.9 nM

CNC(=O)[C@@H](NC(=O)c1nn(-c2ccc(Cl)cc2)c(-n2cccc2)c1C)C(C)C [Compound 33, RS2691-Val-NHCH3]
CB1R functional profile (agonist / antagonist / inverse agonist) (CB1R [1]): antagonists
Ki (CB1R [2]): 168 ± 16 nM

CNC(=O)[C@@H](NC(=O)c1cc(-n2cccc2)n(-c2ccccc2)n1)C(C)C [Compound 35, RS2708-Val-NHCH3]
CB1R functional profile (agonist / antagonist / inverse agonist) (CB1R [1]): weak inverse agonist
EC50 (CB1R [1]): 2460 ± 240 nM
Ki [3H]WIN55,212-2 binding (CB1R [2]): modest affinity
Ki (CB1R [2]): 7940 ± 266 nM

CNC(=O)[C@@H](NC(=O)c1cc(-n2cccc2)n(-c2ccccc2)n1)C(C)(C)C [Compound 36, RS2708-tLeu-NHCH3]
CB1R functional profile (agonist / antagonist / inverse agonist) (CB1R [1]): antagonists
Ki (CB1R [2]): 616 ± 16 nM

CNC(=O)[C@@H](NC(=O)c1nn(-c2ccccc2)c(-n2cccc2)c1C)C(C)C [Compound 37, RS2709-Val-NHCH3]
CB1R functional profile (agonist / antagonist / inverse agonist) (CB1R [1]): weak inverse agonist
EC50 (CB1R [1]): 7080 ± 398 nM
Emax (CB1R [1]): 55 ± 9%
Ki [3H]WIN55,212-2 binding (CB1R [2]): modest affinity
Ki (CB1R [2]): 1060 ± 85 nM

CNC(=O)[C@@H](NC(=O)c1nn(-c2ccccc2)c(-n2cccc2)c1C)C(C)(C)C [Compound 38, RS2709-tLeu-NHCH3]
CB1R functional profile (agonist / antagonist / inverse agonist) (CB1R [1]): antagonists
Emax (CB1R [1]): 102 ± 2%
Ki (CB1R [2]): 42 ± 3.9 nM

CNC(=O)[C@@H](NC(=O)c1nn(-c2ccc(Cl)cc2Cl)c(-n2cccc2Cl)c1C)C(C)C [Compound 39, RS3516-Val-NHCH3]
CB1R functional profile (agonist / antagonist / inverse agonist) (CB1R [1]): weak inverse agonist
EC50 (CB1R [1]): 3540 ± 193 nM
Ki [3H]WIN55,212-2 binding (CB1R [2]): modest affinity
Ki (CB1R [2]): 185 ± 17 nM
